Read-outs that look alike come from different tables or passages of the source.
Test: Plasma PK of brensocatib, BID vs QD oral dosing, C57BL/6 mice
Assay type: in vivo
Conditions: both sexes; for AUC(0-t): first 24 h
Protocol: A dose frequency study was performed in male and female mice (C57BL/6 & BALB/c) and in male and female rats (Sprague Dawley & Wistar) investigating twice daily (BID) versus once daily (QD) brensocatib administration.
Briefly, animals were weighed and randomized into different treatment groups. In total, three different dosing levels of brensocatib were tested in each species and strain; each QD dosing level was equivalent to 1.5-times the matching daily BID dose. For BID dosing, the second daily dose was administered 8-h post the morning dose. C57BL/6 mice were dosed either BID or QD for 7 consecutive days at 0/0, 0.5/0.75, 2/3, and 20/30 mg/kg/day (BID/QD). BALB/c mice were dosed for 7 consecutive days at 0/0, 0.2/0.3, 2/3, and 20/30 mg/kg/day (BID/QD). SD rats were dosed for 9 consecutive days at 0/0, 0.2/0.3, 2/3, and 20/30 mg/kg/day (BID/QD). Wistar rats were dosed for 7 consecutive days at 0/0, 0.2/0.3, 2/3, and 20/30 mg/kg/day (BID/QD).
For sparse PK analysis via LC-MS/MS, plasma was collected from animals during the first 24 h of dosing at prescribed timepoints. The timepoints included 1, 3, 8, and 24 h post initial dose for QD groups, and 1, 3, 8, 9, 11, and 24 h post initial dose for BID groups. Note that the 8- and 24-h plasma samples were prior to the afternoon dose for BID groups and prior to the second day dose for all groups, respectively. See section Quantification of Plasma Brensocatib Concentrations for details.
Blood was collected via the tail-vein technique and centrifuged to separate and collect the plasma. The resulting plasma samples were stored at −20°C or lower until LC-MS/MS analysis.
The plasma concentration of brensocatib was quantified by liquid chromatography, tandem mass spectrometry (LC-MS/MS), a Sciex API6500 mass spectrometer (SCIEX, Framingham, MA). Two brensocatib stock solutions were prepared, one for the preparation of the 8-point standard (STD) curve spiking solutions and the other for the preparation of the quantitative control spiking solutions (QCs) at three levels. The STD curve and QCs were prepared by 2% spiking from the spiking solutions into mouse or rat plasma. The samples were extracted using a protein precipitation method, where 10 µL of sample was mixed with 100 µL of internal standard working solution (100 ng/mL ^6C13-brensocatib in methanol), vortexed for 5 s, and centrifuged at 21,130 × g at 4°C for 15 min. The supernatant was mixed with an equal volume of water and 10 μL was injected into a Phenomenex Kinetex Biphenyl column (3.0 mm × 50 mm; 2.6 μm; 65°C; 0.8 mL/min) with an elution gradient consisting of mobile phase A (10 mM ammonium formate) and mobile phase B (methanol) over 2 min from 5% to 95% B. The mass spectrometer was equipped with an atmospheric-pressure chemical ionization source operating in positive mode.
Individual plasma concentrations were plotted and the area under the curve (AUC) was calculated using the trapezoid method. The elimination rate constant (k e ) was calculated as the negative natural log of the plasma concentration over time (Eq. 1) starting at the max concentration (C max) after the most recent dose to the last measurable plasma concentration between doses. The calculated k e was used to define the half-life (t 1/2 ) based on Eq. 2; where 0.693 is the natural log of 2 and assumes a first-order reaction. ke=−ln∆C/∆t (1) t1/2=0.693/ke (2)

Q: What does the source list for Cn1c(=O)oc2ccc(-c3ccc(C[C@@H](C#N)NC(=O)[C@@H]4CNCCCO4)cc3)cc21 [brensocatib]?
A: half-life (C57BL/6, BALB/c, mouse, oral, mice (both strains), across BID and QD regimens, sparse PK, read-out: half-life (overall) (converted)): ~2.5 h; half-life (C57BL/6, mouse, po, 0.5 mg/kg/day, C57BL/6 mice, oral BID, 0.5 mg/kg/day, evening dose, read-out: t1/2, PM dose (converted)): 0.63 ± 0.01 h; half-life (C57BL/6, mouse, po, 0.5 mg/kg/day, C57BL/6 mice, oral BID, 0.5 mg/kg/day, morning dose, read-out: t1/2, AM dose (converted)): 0.71 ± 0.23 h; half-life (C57BL/6, mouse, po, 0.75 mg/kg/day, C57BL/6 mice, oral QD, 0.75 mg/kg/day, read-out: t1/2, AM dose (converted)): 9.62 ± 0.95 h; half-life (C57BL/6, mouse, po, 2 mg/kg/day, C57BL/6 mice, oral BID, 2 mg/kg/day, evening dose, read-out: t1/2, PM dose (converted)): 2.35 ± 0.35 h; half-life (C57BL/6, mouse, po, 2 mg/kg/day, C57BL/6 mice, oral BID, 2 mg/kg/day, morning dose, read-out: t1/2, AM dose (converted)): 2.07 ± 0.42 h; half-life (C57BL/6, mouse, po, 3 mg/kg/day, C57BL/6 mice, oral QD, 3 mg/kg/day, read-out: t1/2, AM dose (converted)): 6.38 ± 0.56 h; half-life (C57BL/6, mouse, po, 20 mg/kg/day, C57BL/6 mice, oral BID, 20 mg/kg/day, evening dose, read-out: t1/2, PM dose (converted)): 2.36 ± 0.05 h; half-life (C57BL/6, mouse, po, 20 mg/kg/day, C57BL/6 mice, oral BID, 20 mg/kg/day, morning dose, read-out: t1/2, AM dose (converted)): 2.41 ± 0.42 h; half-life (C57BL/6, mouse, po, 30 mg/kg/day, C57BL/6 mice, oral QD, 30 mg/kg/day, read-out: t1/2, AM dose (converted)): 3.01 ± 0.18 h; AUC(0-t) (mouse, C57BL/6 mice, oral BID, 0.5 mg/kg/day, read-out: AUC0–24h): 294 ± 49 ng·h/mL; AUC(0-t) (mouse, C57BL/6 mice, oral BID, 0.5 mg/kg/day, read-out: AUC(0–24)): 0.7 ± 0.12 µM·h; AUC(0-t) (mouse, C57BL/6 mice, oral BID, 2 mg/kg/day, read-out: AUC0–24h): 2010 ± 154 ng·h/mL; AUC(0-t) (mouse, C57BL/6 mice, oral BID, 2 mg/kg/day, read-out: AUC(0–24)): 4.79 ± 0.37 µM·h; AUC(0-t) (mouse, C57BL/6 mice, oral BID, 20 mg/kg/day, read-out: AUC0–24h): 15900 ng·h/mL; AUC(0-t) (mouse, C57BL/6 mice, oral BID, 20 mg/kg/day, read-out: AUC(0–24)): 37.7 ± 8.33 µM·h; AUC(0-t) (mouse, C57BL/6 mice, oral QD, 0.75 mg/kg/day, read-out: AUC0–24h): 735 ± 108 ng·h/mL; AUC(0-t) (mouse, C57BL/6 mice, oral QD, 0.75 mg/kg/day, read-out: AUC(0–24)): 1.75 ± 0.26 µM·h; AUC(0-t) (mouse, C57BL/6 mice, oral QD, 3 mg/kg/day, read-out: AUC0–24h): 2840 ± 302 ng·h/mL; AUC(0-t) (mouse, C57BL/6 mice, oral QD, 3 mg/kg/day, read-out: AUC(0–24)): 6.76 ± 0.72 µM·h; AUC(0-t) (mouse, C57BL/6 mice, oral QD, 30 mg/kg/day, read-out: AUC0–24h): 52600 ng·h/mL; AUC(0-t) (mouse, C57BL/6 mice, oral QD, 30 mg/kg/day, read-out: AUC(0–24)): 125 ± 16 µM·h

— article PMC10394516, “The pharmacokinetic profile of brensocatib and its effect on pharmacodynamic biomarkers including NE, PR3, and CatG in various rodent species” (Frontiers in Pharmacology, 2023)
